The source made the active and inactive calls. The rule behind the calls is not given here.
Legend:
[1] = biological target: Myc proto-oncogene protein (Homo sapiens) (UniProt P01106); assay: Inhibition of Myc in human melanoma cells assessed as increase in Myc-repressed p27kip1 gene expression; format: cell-based
[2] = biological target: Myc proto-oncogene protein (Homo sapiens) (UniProt P01106); assay: Inhibition of Myc in human melanoma cells assessed as reduction in Myc-transactivated thymidylate synthase gene expression; format: cell-based
BE(2)-C = assay: Growth inhibition of human BE(2)-C cells; format: functional, cell-based
IMR-32 = assay: Growth inhibition of human IMR32 cells; format: functional, cell-based
Homo sapiens [3] = organism: Homo sapiens; assay: Growth inhibition of N-Myc amplified human NBL-WN cells; format: functional
Homo sapiens [4] = organism: Homo sapiens; assay: Growth inhibition of N-Myc overexpressing human NBL-S cells; format: functional
SH-SY5Y = assay: Growth inhibition of human SH-SY5Y cells; format: functional, cell-based
Homo sapiens [5] = organism: Homo sapiens; assay: Growth inhibition of human SHEP cells; format: functional
Melanoma cell line [6] = assay: Growth inhibition of human melanoma (#3) cells; format: functional, cell-based
Melanoma cell line [7] = assay: Growth inhibition of human melanoma (#10) cells; format: functional, cell-based
Melanocyte = assay: Growth inhibition of human melanocytes; format: cell-based
[8] = biological target: T1, N-myc proto-oncogene protein (Homo sapiens) (UniProt P04198); assay: Inhibition of N-Myc (unknown origin) expressed in rat Rat1A cells assessed as inhibition of cell growth incubated for 72 hrs by methylene blue staining based assay
T1 sequence (whole entry): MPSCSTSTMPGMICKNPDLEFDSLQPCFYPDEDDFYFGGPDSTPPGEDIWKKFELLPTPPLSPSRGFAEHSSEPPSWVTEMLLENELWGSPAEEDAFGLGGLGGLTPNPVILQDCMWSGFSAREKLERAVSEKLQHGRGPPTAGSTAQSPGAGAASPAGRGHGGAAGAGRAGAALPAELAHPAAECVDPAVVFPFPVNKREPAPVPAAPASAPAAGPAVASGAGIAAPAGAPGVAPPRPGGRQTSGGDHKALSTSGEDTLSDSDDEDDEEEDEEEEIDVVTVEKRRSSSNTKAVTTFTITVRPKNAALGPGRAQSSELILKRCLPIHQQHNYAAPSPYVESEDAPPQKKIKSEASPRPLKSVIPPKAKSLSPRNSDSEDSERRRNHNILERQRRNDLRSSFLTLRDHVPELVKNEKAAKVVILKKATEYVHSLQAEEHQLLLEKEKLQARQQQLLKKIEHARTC

[9] = biological target: Myc proto-oncogene protein (Homo sapiens) (UniProt P01106); assay: Inhibition of C-Myc (unknown origin) expressed in rat Rat1A cells assessed as inhibition of cell growth incubated for 72 hrs by methylene blue staining based assay
[10] = Intrinsic clearance in mouse liver microsomes at 1 uM in presence of NADPH by LC-MS/MS analysis; format: ADME, Microsome
[11] = Intrinsic clearance in human liver microsomes at 1 uM in presence of NADPH by LC-MS/MS analysis; format: ADME, Microsome
SK-MEL19 = assay: Growth inhibition of human SK-MEL-19 cells; format: functional, cell-based
SK-MEL-103 [12] = assay: Growth inhibition of human SK-MEL-103 cells; format: functional, cell-based
[13] = Toxicity in athymic nude mouse xenografted with human SK-MEL-103 cells assessed as induction of distress at 50 mg/kg, ip dosed daily for 14 days dosed via Captisol formulation and measured on day 16; format: organism-based; settings: in vivo, 336 h
Melanoma cell line [14] = assay: Antitumor activity against human melanoma cells xenografted in mouse assessed as inhibition of tumor growth measured up to 8 days; format: functional, cell-based
[15] = Toxicity in mouse xenografted with human melanoma cells measured up to 8 days; settings: 192 h
SK-MEL-103 [16] = assay: Antitumor activity against human SK-MEL-103 cells xenografted in athymic nude mouse assessed as inhibition of tumor growth at 50 mg/kg, ip dosed daily; format: functional, organism-based
SK-MEL-103 [17] = assay: Antitumor activity against human SK-MEL-103 cells xenografted in athymic nude mouse assessed as improvement in mouse survival at 50 mg/kg, ip dosed daily for 14 days dosed via Captisol formulation; format: functional, organism-based
[18] = Toxicity in athymic nude mouse xenografted with human SK-MEL-103 cells assessed as induction of weight loss at 50 mg/kg, ip dosed daily for 14 days dosed via Captisol formulation; format: organism-based; settings: in vivo, 336 h
[19] = Toxicity in athymic nude mouse xenografted with human SK-MEL-103 cells assessed as induction of sickness at 50 mg/kg, ip dosed daily for 14 days dosed via Captisol formulation and measured on day 16; format: organism-based; settings: in vivo, 336 h
SK-MEL-103 [20] = assay: Antitumor activity against human SK-MEL-103 cells xenografted in athymic nude mouse assessed as improvement in mouse survival at 50 mg/kg, ip dosed daily for 4 days dosed via Captisol formulation; format: functional, organism-based
SK-MEL-103 [21] = assay: Antitumor activity against human SK-MEL-103 cells xenografted in athymic nude mouse assessed as initial tumor level at 50 mg/kg, ip dosed daily for 14 days dosed via Captisol formulation (reference value: 80%); format: functional
[22] = biological target: Myc proto-oncogene protein (Homo sapiens) (UniProt P01106); assay: Inhibition of C-Myc in human SK-MEL-103 cells assessed as reduction in MYC-dependent transcriptional activation incubated for 48 hrs by microarray relative to control; format: cell-based
[23] = biological target: Myc proto-oncogene protein (Homo sapiens) (UniProt P01106); assay: Inhibition of C-Myc (unknown origin) expressed in rat HO15.19 cells assessed as accumulation at G0/G1 phase at 3 uM by flow cytometry (reference value: 35.43%); format: cell-based; set-up: scale not given: the % may be the effect or the level left
HO15.19 = assay: Induction of cell cycle arrest in rat HO15.19 cells assessed as accumulation at G0/G1 phase at 3 uM by flow cytometry (reference value: 50.76%); format: cell-based; settings: ho15.19, 3 µM
[24] = biological target: Myc proto-oncogene protein (Homo sapiens) (UniProt P01106); assay: Inhibition of C-Myc in human melanoma (#9) cells assessed as reduction in serine levels by [13C]-glucose labeling based assay; format: cell-based
[25] = biological target: Myc proto-oncogene protein (Homo sapiens) (UniProt P01106); assay: Inhibition of C-Myc in human melanoma (#9) cells assessed as reduction in pyruvate levels by [13C]-glucose labeling based assay; format: cell-based
[26] = biological target: Myc proto-oncogene protein (Homo sapiens) (UniProt P01106); assay: Inhibition of C-Myc in human melanoma (#9) cells assessed as reduction in lactate levels by [13C]-glucose labeling based assay; format: cell-based
[27] = biological target: Myc proto-oncogene protein (Homo sapiens) (UniProt P01106); assay: Inhibition of C-Myc in human melanoma (#9) cells assessed as reduction in fumarate levels by [13C]-glucose labeling based assay; format: cell-based
[28] = Toxicity in athymic nude mouse xenografted with human SK-MEL-103 cells assessed as induction of weight loss at 50 mg/kg, ip dosed daily for 1 days dosed via Captisol formulation (reference value: 100 +/- 10%%); format: organism-based; settings: in vivo, 24 h
[29] = Toxicity in athymic nude mouse xenografted with human SK-MEL-103 cells assessed as induction of weight loss at 50 mg/kg, ip dosed daily for 3 days dosed via Captisol formulation (reference value: 100 +/- 10%%); format: organism-based; settings: in vivo, 72 h
[30] = Toxicity in athymic nude mouse xenografted with human SK-MEL-103 cells assessed as induction of weight loss at 50 mg/kg, ip dosed daily for 5 days dosed via Captisol formulation (reference value: 100 +/- 10%%); format: organism-based; settings: in vivo, 120 h
[31] = Toxicity in athymic nude mouse xenografted with human SK-MEL-103 cells assessed as induction of weight loss at 50 mg/kg, ip dosed daily for 10 days dosed via Captisol formulation (reference value: 100 +/- 10%%); format: organism-based; settings: in vivo, 240 h
[32] = Toxicity in athymic nude mouse xenografted with human SK-MEL-103 cells assessed as induction of weight loss at 50 mg/kg, ip dosed daily for 12 days dosed via Captisol formulation (reference value: 100 +/- 10%%); format: organism-based; settings: in vivo, 288 h
[33] = Toxicity in athymic nude mouse xenografted with human SK-MEL-103 cells assessed as induction of weight loss at 50 mg/kg, ip dosed daily for 14 days dosed via Captisol formulation (reference value: 100 +/- 10%%); format: organism-based; settings: in vivo, 336 h
[34] = Stability in mouse liver microsomes assessed as parent compound remaining at 1 uM incubated for 0 mins in presence of NADPH by LC-MS/MS analysis; format: ADME, Microsome; settings: read-out: Stability
[35] = Stability in human liver microsomes assessed as parent compound remaining at 1 uM incubated for 0 mins in presence of NADPH by LC-MS/MS analysis; format: ADME, Microsome; settings: read-out: Stability

Chain of Myc proto-oncogene protein (Homo sapiens) (P01106 whole entry): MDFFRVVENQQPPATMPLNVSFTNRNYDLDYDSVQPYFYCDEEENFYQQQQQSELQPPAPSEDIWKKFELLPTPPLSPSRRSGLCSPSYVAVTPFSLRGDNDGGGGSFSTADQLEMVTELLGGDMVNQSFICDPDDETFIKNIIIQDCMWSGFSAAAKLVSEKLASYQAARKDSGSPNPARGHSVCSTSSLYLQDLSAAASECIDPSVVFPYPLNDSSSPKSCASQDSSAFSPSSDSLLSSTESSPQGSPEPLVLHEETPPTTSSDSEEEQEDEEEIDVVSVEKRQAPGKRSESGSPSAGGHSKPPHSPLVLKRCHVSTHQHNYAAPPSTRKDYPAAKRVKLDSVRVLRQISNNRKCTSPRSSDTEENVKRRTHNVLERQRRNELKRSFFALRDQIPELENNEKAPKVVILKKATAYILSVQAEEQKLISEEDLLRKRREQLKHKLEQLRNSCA

CCOc1cccc(/C=N/NC(=O)CSc2nc3ccccc3[nH]2)c1O
inhibition [1]: Active
inhibition [2]: Active
growth inhibition (GI) (BE(2)-C): Active
growth inhibition (GI) (IMR-32): Active
growth inhibition (GI) (Homo sapiens [3]): Active
growth inhibition (GI) (Homo sapiens [4]): Active
growth inhibition (GI) (SH-SY5Y): Active
growth inhibition (GI) (Homo sapiens [5]): Active
growth inhibition (GI) (Melanoma cell line [6]): Active
growth inhibition (GI) (Melanoma cell line [7]): Active
growth inhibition (GI) (Melanocyte): Non-Toxic

CCN(CC)c1ccc(/C=N/NC(=O)c2cc(C)n[nH]2)c(O)c1
inhibition [8]: Active
inhibition [9]: Active
intrinsic clearance [10]: 200 µL/min/mg
intrinsic clearance [11]: 47 µL/min/mg

CCN(CC)C1CC(=O)N(c2cccc(Cl)c2)C1=O (stereo not drawn)
growth inhibition (GI) (SK-MEL19): inactive
growth inhibition (GI) (SK-MEL-103 [12]): inactive

CC(C)(C)c1cc(C(=O)N/N=C/c2ccc(O)cc2O)n(-c2ccccc2)n1
inhibition [1]: Active
inhibition [2]: Active
growth inhibition (GI) (BE(2)-C): Active
growth inhibition (GI) (IMR-32): Active
growth inhibition (GI) (Homo sapiens [3]): Active
growth inhibition (GI) (Homo sapiens [4]): Active
growth inhibition (GI) (SH-SY5Y): Active
growth inhibition (GI) (Homo sapiens [5]): Active
growth inhibition (GI) (Melanoma cell line [6]): Active
growth inhibition (GI) (Melanoma cell line [7]): Active
growth inhibition (GI) (Melanocyte): Non-Toxic

COCc1cc(CN(C)C2CCCCC2)c(O)c2ncccc12
inhibition [1]: Active
inhibition [2]: Active
growth inhibition (GI) (BE(2)-C): Active
growth inhibition (GI) (IMR-32): Active
growth inhibition (GI) (Homo sapiens [3]): Active
growth inhibition (GI) (Homo sapiens [4]): Active
growth inhibition (GI) (SH-SY5Y): Active
growth inhibition (GI) (Homo sapiens [5]): Active
growth inhibition (GI) (Melanoma cell line [6]): Active
growth inhibition (GI) (Melanoma cell line [7]): Active
growth inhibition (GI) (Melanocyte): Non-Toxic

CCN(CC)c1ccc(/C=N\NC(=O)c2nnn(-c3nonc3N)c2CN2CCCCCC2)c(O)c1
inhibition [8]: Active
inhibition [9]: Active
intrinsic clearance [10]: 690 µL/min/mg
intrinsic clearance [11]: 87 µL/min/mg

C=CCc1cccc(/C=N/NC(=O)c2cc(C(C)(C)C)n[nH]2)c1O
inhibition [1]: Active
inhibition [2]: Active

CN(C)CCCNc1cc(O)c2c(c1O)C(=O)c1ccccc1C2=O
growth inhibition (GI) (SK-MEL19): inactive
growth inhibition (GI) (SK-MEL-103 [12]): inactive

O=C(N/N=C/c1c(O)ccc2ccccc12)c1cc(C23CC4CC(CC(C4)C2)C3)n[nH]1
inhibition [1]: Active
inhibition [2]: Active

CC(C)=NNc1ncnc2[nH]cnc12
growth inhibition (GI) (SK-MEL19): inactive
growth inhibition (GI) (SK-MEL-103 [12]): inactive

O=[N+]([O-])c1ccc(CCNC2CC3CCC2C3)cc1 (stereo not drawn)
growth inhibition (GI) (SK-MEL19): inactive
growth inhibition (GI) (SK-MEL-103 [12]): inactive

Cc1ccc(/C=N/NC(=O)c2cc(-c3ccccc3)n[nH]2)c(O)c1
inhibition [8]: Active
inhibition [9]: Active

CCN(CC)Cc1c(C(=O)N/N=C/c2ccc(N(CC)CC)cc2O)nnn1-c1nonc1N
inhibition [8]: Active
inhibition [9]: Active
intrinsic clearance [10]: 300 µL/min/mg
intrinsic clearance [11]: 120 µL/min/mg

CCN(CC)c1ccc(/C=N/NC(=O)Cn2nnc(-c3ccccc3)n2)c(O)c1
Activity [13]: Non-Toxic
inhibition [1]: Active
inhibition [2]: Active
TGI (Melanoma cell line [14]): Active
Activity [15]: Non-Toxic
TGI (SK-MEL-103 [16]): Active
Activity (SK-MEL-103 [17]): Active
Activity [18]: Non-Toxic
Activity [19]: Non-Toxic
TGI (SK-MEL-103 [20]): inactive
Activity (SK-MEL-103 [21]): <50%
inhibition [22]: Active
intrinsic clearance [10]: 270 µL/min/mg
intrinsic clearance [11]: 110 µL/min/mg
Activity [23]: 49.7%
Activity (HO15.19): 54.9%
inhibition [24]: Active
inhibition [25]: Active
inhibition [26]: Active
inhibition [27]: Active
Activity [28]: 100%
Activity [29]: 103.3%
Activity [30]: 103.8%
Activity [31]: 111.4%
Activity [32]: 113.3%
Activity [33]: 114.5%

CC(=O)NC(c1ccc2c(c1)OCO2)c1ccc2cccnc2c1O (stereo not drawn)
inhibition [1]: Active
inhibition [2]: Active

CCN(CC)c1ccc(/C=N/NC(=O)Cn2c3ccccc3c(=O)c3ccccc32)c(O)c1
inhibition [8]: Active
inhibition [9]: Active
intrinsic clearance [10]: 100 µL/min/mg
intrinsic clearance [11]: < 20 µL/min/mg

Nc1nonc1-n1nnc(C(=O)N/N=C/c2ccccc2O)c1CN1CCc2ccccc2C1
inhibition [8]: Active
inhibition [9]: Active
remaining at 0 h, 1 µM [34]: 100%
remaining at 0 h, 1 µM [35]: 100%

CCCOc1ccc(N2C(=O)CC(N3CCC(C(=O)O)CC3)C2=O)cc1 (stereo not drawn)
growth inhibition (GI) (SK-MEL19): inactive
growth inhibition (GI) (SK-MEL-103 [12]): inactive

CCCN(CCC)Cc1c(C(=O)N/N=C/c2ccc(N(CC)CC)cc2O)nnn1-c1nonc1N
inhibition [8]: Active
inhibition [9]: Active
intrinsic clearance [10]: 270 µL/min/mg
intrinsic clearance [11]: 130 µL/min/mg

COc1ccc(OCC(=O)N/N=C\c2cc(O)c(O)c(Br)c2)c(Br)c1
inhibition [1]: Active
inhibition [2]: Active

Reference: ChEMBL document CHEMBL4421731, “Small molecules inhibiting oncoprotein Myc” (2016)
